PMC12516686, “Design of 2‑Aminobenzothiazole Derivatives Targeting Trypanosomatid PTR1 by a Multidisciplinary Fragment Hybridization Approach” (Journal of Medicinal Chemistry, 2025)
Values joined by “and” are separate entries in the source; they are usually repeats but may differ in a detail not shown here. Identical values can stand only once. Like-named read-outs stand apart in the source and are kept apart here.

Key:
[1] = molecular target: T1, LmPTR1 (Leishmania major, UniProt Q01782); experiment: LmPTR1 indirect (cytochrome c-coupled) enzyme assay; assay type: biochemical; details: for IC50: indirect assay, triplicate, SD within ± 10% of the value
T1 sequence (Q01782 1-288): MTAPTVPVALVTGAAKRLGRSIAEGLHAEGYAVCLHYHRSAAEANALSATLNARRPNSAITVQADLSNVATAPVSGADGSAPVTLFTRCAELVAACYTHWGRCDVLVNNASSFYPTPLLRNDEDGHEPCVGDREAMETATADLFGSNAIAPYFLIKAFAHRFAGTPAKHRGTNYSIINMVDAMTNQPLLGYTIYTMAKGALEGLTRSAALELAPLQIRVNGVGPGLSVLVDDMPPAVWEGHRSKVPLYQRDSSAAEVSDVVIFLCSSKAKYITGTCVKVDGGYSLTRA
Method: (§1) The in vitro assays used in the current study were based on those reported in the literature. As PTR1 enzymes use dihydrobiopterin (H2B) as a substrate and also require NADPH for the reaction, the reduction of H2B to tetrahydrobiopterin by PTR1 is nonenzymatically linked with the reduction of cytochrome c in this assay, which is detected at 550 nm. The formation of cyt c Fe^2+ results in an increase in the photometric readout. TbPTR1 and LmPTR1 activity was assayed in a buffer containing 20 mM sodium citrate (pH 6.0). The final reaction mixture contained the test compound at a range of concentrations and TbPTR1/LmPTR1 (6.0 nM/12 nM), H2B (0.3 μM/3 μM), cytochrome c (100 μM/100 μM), and NADPH (500 μM/500 μM). The final assay volume was 50 μL in 384-well clear plates (Greiner Bio-One, 781101). Compound screening was performed by the addition of the compound to the assay plates (in 100% DMSO), followed by the addition of 45 μL Reaction Mix (enzyme, H2B cytochrome c in 20 mM sodium citrate buffer). A pre-read was made at 550 nm using an EnVision Multilabel Reader 2103 (PerkinElmer Inc., US), followed by incubation of the assay plates at 30 °C for 10 min. The reaction was initiated by the addition of 5 μL of NADPH (5 mM in ultrapure water) followed by kinetically reading the assay plates at 550 nm using the EnVision Multilabel Reader at 10, 20, 30, 40, and 50 min. The slope of each assay well was calculated. The screening data were analyzed using ActivityBase (IDBS), and for outlier elimination in the control wells, the 3-σ method was applied. Based on the slope, the data were normalized to the positive control methotrexate for TbPTR1/LmPTR1 (1 μM/50 μM, yielding 100% inhibition) and negative controls (1% DMSO, yielding 0% inhibition), and % inhibition was calculated for all samples. The measurement at time 0 min was used to flag optically interfering samples. Each compound was tested in triplicate, and the pIC50 value, standard deviation, Hill slope, and minimum and maximum signals for each dose–response curve were obtained using a 4-parameter logistic fit in the XE module of Activity Base (IDBS), as also reported previously. ,

[2] = molecular target: T2, hERG (Homo sapiens, UniProt Q12809); experiment: hERG liability assay
T2 construct: purchased Invitrogen

[3] = Cytotoxicity assay (MTT) on THP-1-derived macrophages; assay type: cell-based, Human; details: human, THP-1-derived macrophages
Method: (§2) Human leukemia cell line THP-1 (ATCC TIB202) cells were cultured in RPMI-1640 medium supplemented with 10% heat-inactivated fetal bovine serum (FBS), 2 mM L-glutamine, 100 IU/mL penicillin/streptomycin, and 20 mM HEPES. The cell line was maintained in a humidified incubator at 37 °C with 5% CO2. Subcultures were performed every 3 days in 20 mL of media at a concentration of 2 × 10^5 cells/mL in a T75 flask. All cell culture reagents were purchased from Lonza Bioscience (Morrisville, NC).
(§3) The cytotoxicity of the compounds on THP-1-derived macrophages was assessed using the colorimetric MTT assay (3-(4,5-dimethylthiazol-2-yl)-2,5-diphenyl tetrazolium bromide) as described elsewhere. THP-1 cells were suspended in RPMI complete medium at a density of 1 × 10^6 cells/mL, and 100 μL/well was seeded in a 96-well plate. The cells were differentiated into macrophages by adding 40 ng/mL of phorbol-myristate 13-acetate (PMA, Sigma, Saint Louis, MI, USA) for 24 h, followed by replacement with fresh medium for another 24 h. Subsequently, the cells were incubated with 100 μL of compounds, ranging from 100 to 12.5 μM, diluted in RPMI complete medium. Each condition was tested in triplicate. After 72 h of incubation at 37 °C with 5% CO2, the medium was removed, and 200 μL of 0.5 mg/mL MTT solution diluted in RPMI was added. The plates were incubated for an additional 4 h, after which 160 μL of the media was removed and replaced with 160 μL of 2-propanol. Absorbance was read at 570 nm using a Synergy 2 Multi-Mode Reader (Biotek, Winooski, VT, USA). Cytotoxicity was evaluated by presenting the CC50 (the concentration of the drug that reduces cell viability by 50%) interval or by determining the CC50 value through nonlinear regression analysis using GraphPad Prism version 8.1.1 for Windows (GraphPad Software, San Diego, CA, USA). Results represent the average of at least three independent experiments.

[4] = molecular target: T3, TbPTR1 (Trypanosoma brucei brucei, UniProt O76290); experiment: TbPTR1 indirect (cytochrome c-coupled) enzyme assay; assay type: biochemical; details: for IC50: indirect assay, triplicate, SD within ± 10% of the value
T3 sequence (O76290 1-268): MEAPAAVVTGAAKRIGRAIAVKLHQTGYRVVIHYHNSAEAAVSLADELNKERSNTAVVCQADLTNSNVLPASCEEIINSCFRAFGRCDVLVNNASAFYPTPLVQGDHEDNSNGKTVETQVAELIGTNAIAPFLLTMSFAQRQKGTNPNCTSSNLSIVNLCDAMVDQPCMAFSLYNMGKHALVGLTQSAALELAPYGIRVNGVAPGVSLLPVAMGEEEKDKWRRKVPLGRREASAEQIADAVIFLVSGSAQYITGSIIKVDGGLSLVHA
Method: as §1

[5] = molecular target: T4, CYP2D6 (Homo sapiens, UniProt P10635); experiment: Cytochrome P450 assay (P450-Glo), isoform 2D6; assay type: in vitro ADME
T4 construct: purchased Promega; host or cells: baculovirus-infected insect cells
From the text: 3A4. The Promega P450-Glo assay platform was used with microsomal preparations of
cytochrome P450s from baculovirus-infected insect cells. […]

[6] = tested on: THP-1-derived macrophages; experiment: Cytotoxicity assay (MTT) on THP-1-derived macrophages; assay type: cell-based, Human; details: THP-1 CC50 vs T. brucei EC50
Method: as §2, §3

[7] = lower limit of CC50 interval, read-out: THP1 CC50 lower limit
[8] = upper limit of CC50 interval, read-out: THP1 CC50 upper limit
[9] = cytotoxic concentration for THP1 cells, read-out: CC50 THP1

T2 sequence (Q12809 whole entry): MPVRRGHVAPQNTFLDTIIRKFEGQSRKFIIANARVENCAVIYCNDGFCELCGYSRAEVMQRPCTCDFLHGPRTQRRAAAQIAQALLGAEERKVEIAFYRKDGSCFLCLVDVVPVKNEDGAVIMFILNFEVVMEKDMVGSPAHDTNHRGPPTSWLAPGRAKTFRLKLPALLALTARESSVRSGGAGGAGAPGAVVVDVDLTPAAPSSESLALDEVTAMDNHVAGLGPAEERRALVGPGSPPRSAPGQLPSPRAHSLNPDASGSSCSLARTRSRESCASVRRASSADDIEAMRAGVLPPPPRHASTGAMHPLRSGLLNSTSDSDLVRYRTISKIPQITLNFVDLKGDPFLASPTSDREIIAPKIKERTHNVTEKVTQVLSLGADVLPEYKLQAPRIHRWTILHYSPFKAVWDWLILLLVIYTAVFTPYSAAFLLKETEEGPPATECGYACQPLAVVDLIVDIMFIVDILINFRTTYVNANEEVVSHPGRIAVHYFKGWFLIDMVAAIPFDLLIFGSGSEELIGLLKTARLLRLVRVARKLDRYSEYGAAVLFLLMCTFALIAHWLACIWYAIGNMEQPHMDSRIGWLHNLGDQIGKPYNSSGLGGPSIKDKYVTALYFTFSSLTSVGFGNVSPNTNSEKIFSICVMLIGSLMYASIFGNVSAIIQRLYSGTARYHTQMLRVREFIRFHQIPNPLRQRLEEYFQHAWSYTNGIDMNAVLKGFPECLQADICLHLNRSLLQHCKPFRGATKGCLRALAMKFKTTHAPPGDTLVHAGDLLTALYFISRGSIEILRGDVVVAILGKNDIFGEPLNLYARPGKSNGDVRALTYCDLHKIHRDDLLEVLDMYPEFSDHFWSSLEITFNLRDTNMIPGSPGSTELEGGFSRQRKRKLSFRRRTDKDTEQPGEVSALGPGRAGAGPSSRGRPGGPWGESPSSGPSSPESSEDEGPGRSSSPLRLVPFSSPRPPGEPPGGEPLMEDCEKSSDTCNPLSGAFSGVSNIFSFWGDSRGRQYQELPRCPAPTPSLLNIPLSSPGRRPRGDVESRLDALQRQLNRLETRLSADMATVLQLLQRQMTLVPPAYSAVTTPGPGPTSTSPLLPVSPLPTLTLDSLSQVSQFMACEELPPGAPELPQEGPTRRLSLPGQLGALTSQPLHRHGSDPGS
T4 sequence (P10635 whole entry, canonical isoform): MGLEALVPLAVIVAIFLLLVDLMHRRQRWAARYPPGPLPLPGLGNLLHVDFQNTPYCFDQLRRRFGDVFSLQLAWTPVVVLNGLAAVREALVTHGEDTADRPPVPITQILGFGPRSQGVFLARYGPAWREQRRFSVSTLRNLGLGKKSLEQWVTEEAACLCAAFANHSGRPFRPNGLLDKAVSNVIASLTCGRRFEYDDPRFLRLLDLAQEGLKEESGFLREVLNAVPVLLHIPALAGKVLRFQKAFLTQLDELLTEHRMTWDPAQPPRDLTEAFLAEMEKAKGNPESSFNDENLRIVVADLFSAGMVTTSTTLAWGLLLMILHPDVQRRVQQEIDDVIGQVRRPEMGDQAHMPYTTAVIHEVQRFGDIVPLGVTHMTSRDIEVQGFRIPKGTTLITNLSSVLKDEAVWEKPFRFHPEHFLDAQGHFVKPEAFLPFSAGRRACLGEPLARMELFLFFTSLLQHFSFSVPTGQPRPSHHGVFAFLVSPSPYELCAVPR

SMILES | inhibition at 50 µM [1] [%] | IC50 [1] | IC50 [2] [µM] | CC50 at 72 h [3, 7] [µM] | CC50 at 72 h [3, 8] [µM] | IC50 [4] [µM] | IC50 [5] [µM] | activity at 10 µM ([2]; human, at 10 µM compound concentration, read-out: hERG % residual activity) [%] | CC50 at 72 h [3, 9] [µM] | inhibition at 50 µM ([4]; at 50 μM) [%] | activity at 10 µM ([5]; human, at 10 µM compound concentration, read-out: CYP 2D6 % residual activity) [%] | hERG IC50 [2] | Selectivity index toward THP-1 cells [6] | CYP 2D6 IC50 [5]
Nc1nc2ccc(C(=O)NCCc3ccc(Br)cc3)cc2s1 [Compound 2e, 2-amino-N-(4-bromophenethyl)benzo[d]thiazole-6-carboxamide] | 33 ± 1 | 78.8 µM | 3.2 | > 25 | < 50 | 2.9 | 0.1 | – | – | – | – | – | – | –
Nc1nc2ccc(C(=O)N(CCc3ccc(Cl)c(Cl)c3)c3ccccc3)cc2s1 [Compound 1e, 2-amino-N-(3,4-dichlorophenethyl)-N-phenylbenzo[d]thiazole-6-carboxamide] | 31 ± 2 | – | – | – | – | – | – | -34.8 | > 100 | 18 ± 1 | 59.9 | – | – | –
Nc1nc2ccc(C(=O)NCCc3ccc(Cl)c(Cl)c3)cc2s1 [Compound 1a, 2-amino-N-(3,4-dichlorophenethyl)benzo[d]thiazole-6-carboxamide] | 21 ± 2 | – | – | > 50 | < 100 | 7.6 | 0.1 | – | – | – | – | max | over 16 | –
Nc1nc2ccc(C(=O)NCCc3cccc(Cl)c3)cc2s1 [Compound 2b, 2-amino-N-(3-chlorophenethyl)benzo[d]thiazole-6-carboxamide] | 48 ± 2 | 91.4 µM | 2.8 | > 50 | < 100 | 3.9 | 0.9 | – | – | – | – | – | – | –
Nc1nc2ccc(C(=O)N(Cc3ccc(Cl)c(Cl)c3)C3CC3)cc2s1 [Compound 1c, 2-amino-N-cyclopropyl-N-(3,4-dichlorobenzyl)benzo[d]thiazole-6-carboxamide] | 26 ± 5 | – | – | – | – | 71.6 | 2.5 | – | > 100 | – | – | max | – | –
Nc1nc2ccc(CN(Cc3ccc(Cl)c(Cl)c3)C3CC3)cc2s1 [Compound 1d, 6-((cyclopropyl(3,4-dichlorobenzyl)amino)methyl)benzo[_d_]thiazol-2-amine] | 38 ± 4 | – | – | > 25 | < 50 | 3.3 | 2.5 | – | 25 to 50 | – | – | max | – | –
Nc1nc2ccc(C(=O)NCCc3ccc(Cl)cc3)cc2s1 [Compound 2c, 2-amino-N-(4-chlorophenethyl)benzo[d]thiazole-6-carboxamide] | 32 ± 2 | – | 4.5 | > 50 | < 100 | 4.8 | 0.5 | – | – | – | – | – | – | –
Nc1nc2ccc(C(=O)NCCc3cccc(Br)c3)cc2s1 [Compound 2d, 2-amino-N-(3-bromophenethyl)benzo[d]thiazole-6-carboxamide] | 57 ± 2 | – | 3.2 | > 50 | < 100 | 2.4 | 5 | – | – | – | – | – | – | –
Nc1nc2ccc(C(=O)NCCc3ccccc3)cc2s1 [Compound 2a, 2-amino-N-phenethylbenzo[d]thiazole-6-carboxamide] | 35 ± 1 | – | 4.5 | – | – | 14.5 | – | – | > 100 | – | – | significant blocking of hERG channels | – | max
Nc1nc2ccccc2n1Cc1ccc(Cl)c(Cl)c1 [I, 1-(3,4-dichlorobenzyl)-1H-benzimidazol-2-amine, reference compound] | 75 ± 1 | – | 0.85 | – | – | 0.39 | – | – | 8 | – | – | – | – | –
Nc1nc2ccc(C(=O)N(CCc3ccc(Cl)c(Cl)c3)C3CC3)cc2s1 [Compound 1b, 2-amino-N-cyclopropyl-N-(3,4-dichlorophenethyl)benzo[d]thiazole-6-carboxamide] | 72 ± 4 | 39 µM and 38.9 µM | – | > 25 | < 50 | 17.1 | 0.9 | – | 25 to 50 | – | – | max | 5−10 | –
